Paper PMC11868595, “Safety, pharmacokinetics and efficacy of HA121-28 in patients with advanced solid tumors and RET fusion-positive non-small-cell lung cancer: a multicenter, open-label, single-arm phase 1/2 trial” (Signal Transduction and Targeted Therapy, 2025)

Assays:
[1] = system: patients of phase 1 and phase 2 trials; assay: Phase 1/2 pooled TRAEs with or without previous immunotherapy; format: in vivo, human
Experimental: Treatment-emergent adverse events (TEAEs) were documented during the entire study period. The predefined adverse event of special interest (AESI) was ≥ grade 3 prolonged QT interval. Tumor imaging was performed using contrast-enhanced computed tomography or magnetic resonance imaging at screening, Day 28 of the first cycle, then approximately every eight weeks till the end of the study for phase 1; in phase 2, imaging was scheduled at screening, and every eight weeks during the first 40 weeks, followed by every 12 weeks for the rest of the study period. RECIST 1.1 was used by the independent review committee or investigators for assessment of tumor response. After the original assessment, a repeated assessment was required around four weeks later to confirm a complete or partial response.
The full analysis set consisted of all patients who had administered at least one dose of HA121-28 and was used to calculate the baseline characteristics, OS, and PFS results. The safety set included all patients who had administered at least one dose of the HA121-28 and had at least one safety-related observation. This population was used for analysis of TEAEs. The efficacy evaluable set consisted of patients who had administered at least one dose of HA121-28 and completed at least one efficacy assessment following study treatment. This population was used to calculate the ORR, DOR, and DCR. In addition, the ORRs for subgroup analyses, including age ( < 60, ≥60), ECOG PS (0 or 1), gender (male or female), prior treatment with TKIs (yes or no), brain or liver metastasis (yes or no), were also calculated. The plasma drug concentration-time profile was characterized using PK concentration set that included patients who had administered at least one dose of HA121-28 and had at least one measurable plasma concentration of HA121-28. The PK parameter set was used to calculate PK parameters, which consisted of patients who had administered at least one dose of HA121-28 with at least one valid PK parameter. ORR and DCR were described using the Clopper-Pearson method with two-sided 95% confidence intervals (CIs). PFS and DOR were assessed using the Kaplan-Meier method, including an estimate of the median, along with corresponding 95% CIs. Statistical analyses of clinical outcomes were conducted by SAS (version 9.4 or later) and R software 4.1.0 for genomic DNA from pre-treatment tumor tissue (http://cran.r-project.org).

FMS = FMS (Homo sapiens, UniProt P07333); assay: Tyrosine kinase inhibition; format: biochemical
HER-2 = HER-2 (Homo sapiens, UniProt P04626); assay: Tyrosine kinase inhibition; format: biochemical; conditions: read-out: IC50, HER2
matrigel angiogenesis = format: in vivo, mouse; conditions: induced by VEGF and FGF
[2] = system: EGFR signaling in tumor tissue; assay: PK/PD in plasma and tumor tissue of tumor-bearing mice; format: in vivo; conditions: after a single dose, 25 and 50 mg/kg
Metabolites in plasma = conditions: rats
Ames test = conditions: in vitro Ames test
[3] = With prior immunotherapy treatment (N=43)
[4] = Without prior immunotherapy treatment (N=165)

Chain of FMS (P07333 20-972): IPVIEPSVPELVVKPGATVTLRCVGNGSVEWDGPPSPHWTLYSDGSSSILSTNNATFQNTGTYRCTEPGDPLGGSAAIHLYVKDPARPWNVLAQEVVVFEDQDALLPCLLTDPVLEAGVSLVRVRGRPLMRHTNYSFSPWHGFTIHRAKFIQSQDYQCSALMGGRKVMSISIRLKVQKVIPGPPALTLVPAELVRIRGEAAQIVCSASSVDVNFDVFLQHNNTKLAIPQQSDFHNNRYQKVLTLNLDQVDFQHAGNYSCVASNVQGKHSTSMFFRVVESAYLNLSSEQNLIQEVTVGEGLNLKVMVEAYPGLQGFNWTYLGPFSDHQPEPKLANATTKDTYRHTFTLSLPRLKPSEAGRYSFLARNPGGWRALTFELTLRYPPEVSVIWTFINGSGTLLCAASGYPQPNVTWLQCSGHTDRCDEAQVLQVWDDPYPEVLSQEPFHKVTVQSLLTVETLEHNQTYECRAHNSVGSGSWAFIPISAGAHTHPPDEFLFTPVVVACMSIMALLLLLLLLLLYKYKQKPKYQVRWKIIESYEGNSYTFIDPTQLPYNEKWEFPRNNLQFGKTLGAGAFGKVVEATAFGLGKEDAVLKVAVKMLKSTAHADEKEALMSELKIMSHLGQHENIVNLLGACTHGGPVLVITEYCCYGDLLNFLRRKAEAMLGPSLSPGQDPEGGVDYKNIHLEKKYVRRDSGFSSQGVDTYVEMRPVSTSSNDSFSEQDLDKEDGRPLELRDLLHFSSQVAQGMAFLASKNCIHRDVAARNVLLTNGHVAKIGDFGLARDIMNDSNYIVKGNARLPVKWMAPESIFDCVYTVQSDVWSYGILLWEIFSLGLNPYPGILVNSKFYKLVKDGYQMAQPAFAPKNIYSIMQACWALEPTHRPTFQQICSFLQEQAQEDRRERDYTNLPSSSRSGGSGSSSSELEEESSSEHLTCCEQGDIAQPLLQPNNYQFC
Chain of HER-2 (P04626 23-1255): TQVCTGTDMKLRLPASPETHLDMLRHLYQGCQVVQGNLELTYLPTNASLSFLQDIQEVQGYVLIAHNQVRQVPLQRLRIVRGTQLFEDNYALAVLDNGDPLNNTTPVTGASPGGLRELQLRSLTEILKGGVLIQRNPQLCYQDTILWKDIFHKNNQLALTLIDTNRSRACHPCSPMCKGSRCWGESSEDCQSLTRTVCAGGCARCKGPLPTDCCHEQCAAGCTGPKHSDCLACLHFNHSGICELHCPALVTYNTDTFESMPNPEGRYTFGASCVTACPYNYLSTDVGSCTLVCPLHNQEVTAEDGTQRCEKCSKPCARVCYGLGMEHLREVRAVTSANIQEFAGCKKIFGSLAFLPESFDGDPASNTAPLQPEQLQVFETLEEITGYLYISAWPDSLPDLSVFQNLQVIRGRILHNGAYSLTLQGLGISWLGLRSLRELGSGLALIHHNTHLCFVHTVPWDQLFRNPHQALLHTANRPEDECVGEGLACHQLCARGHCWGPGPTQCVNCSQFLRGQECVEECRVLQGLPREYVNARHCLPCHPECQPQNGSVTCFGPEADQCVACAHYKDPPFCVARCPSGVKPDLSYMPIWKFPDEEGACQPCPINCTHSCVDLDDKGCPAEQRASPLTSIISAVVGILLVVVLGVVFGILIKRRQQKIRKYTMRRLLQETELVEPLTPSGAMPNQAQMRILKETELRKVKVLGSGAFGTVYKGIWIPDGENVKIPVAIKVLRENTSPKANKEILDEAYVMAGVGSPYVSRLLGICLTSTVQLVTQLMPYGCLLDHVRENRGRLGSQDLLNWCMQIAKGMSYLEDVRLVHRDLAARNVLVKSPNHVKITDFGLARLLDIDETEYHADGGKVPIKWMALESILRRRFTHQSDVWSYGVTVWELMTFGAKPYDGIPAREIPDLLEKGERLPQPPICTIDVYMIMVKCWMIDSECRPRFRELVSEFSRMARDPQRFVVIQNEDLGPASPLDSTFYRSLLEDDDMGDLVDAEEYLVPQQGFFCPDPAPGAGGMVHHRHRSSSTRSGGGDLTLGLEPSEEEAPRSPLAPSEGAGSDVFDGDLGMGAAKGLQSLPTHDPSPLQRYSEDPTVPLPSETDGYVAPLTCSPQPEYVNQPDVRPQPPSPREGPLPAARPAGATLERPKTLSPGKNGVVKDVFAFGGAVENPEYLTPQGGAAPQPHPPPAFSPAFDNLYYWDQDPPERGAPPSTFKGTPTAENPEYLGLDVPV

For `COc1cc2c(Nc3ccc(Br)cc3F)ncnc2cc1OCCCCN(C)C.Cl.Cl` [HA121-28, N-(4-bromo-2-fluorophenyl)-7-(4-(dimethylamino)butoxy)-6-methoxy quinazolin-4-amine dihydrochloride], the “incidence of ≥ grade-3 TRAE” value ([1]; 43 patients with previous immunotherapy) was 58.1%, the “incidence of ≥ grade-3 TRAE” value ([1]; 165 patients without previous immunotherapy) was 41.2% and the “TRAE, All: ALT increased” value [1, 3] was 22 (51.2) count (percentage). For the same molecule, the “TRAE, All: AST increased” value [1, 3] was 19 (44.2) count (percentage), the “TRAE, All: Anemia” value [1, 3] was 5 (11.6) count (percentage) and the “TRAE, All: Any” value [1, 3] was 42 (97.7) count (percentage). For the same molecule, the “TRAE, All: Blood creatinine increased” value [1, 3] was 11 (25.6) count (percentage), the “TRAE, All: Decreased appetite” value [1, 3] was 7 (16.3) count (percentage) and the “TRAE, All: Decreased lymphocyte counts” value [1, 3] was 5 (11.6) count (percentage). For the same molecule, the “TRAE, All: Diarrhea” value [1, 3] was 32 (74.4) count (percentage), the “TRAE, All: Fatigue” value [1, 3] was 6 (14.0) count (percentage) and the “TRAE, All: Hypertension” value [1, 3] was 5 (11.6) count (percentage). The “TRAE, All: Hypoalbuminemia” value [1, 3] was 5 (11.6) count (percentage), the “TRAE, All: Hypokalemia” value [1, 3] was 9 (20.9) count (percentage) and the “TRAE, All: Nausea” value [1, 3] was 6 (14.0) count (percentage). The “TRAE, All: Neutrophil counts decreased” value [1, 3] was 7 (16.3) count (percentage), the “TRAE, All: Platelet counts decreased” value [1, 3] was 7 (16.3) count (percentage) and the “TRAE, All: Prolonged QT interval” value [1, 3] was 23 (53.5) count (percentage). For the same molecule, the “TRAE, All: Proteinuria” value [1, 3] was 17 (39.5) count (percentage), the “TRAE, All: Rash” value [1, 3] was 31 (72.1) count (percentage) and the “TRAE, All: Vomiting” value [1, 3] was 7 (16.3) count (percentage). The “TRAE, All: Weight loss” value [1, 3] was 6 (14.0) count (percentage), the “TRAE, All: White blood cell counts decreased” value [1, 3] was 7 (16.3) count (percentage) and the “TRAE, ≥ Grade 3: ALT increased” value [1, 3] was 1 (2.3) count (percentage). For the same molecule, the “TRAE, ≥ Grade 3: AST increased” value [1, 3] was 1 (2.3) count (percentage), the “TRAE, ≥ Grade 3: Anemia” value [1, 3] was 0 count (percentage) and the “TRAE, ≥ Grade 3: Any” value [1, 3] was 25 (58.1) count (percentage). For the same molecule, the “TRAE, ≥ Grade 3: Blood creatinine increased” value [1, 3] was 0 count (percentage), the “TRAE, ≥ Grade 3: Decreased appetite” value [1, 3] was 0 count (percentage) and the “TRAE, ≥ Grade 3: Decreased lymphocyte counts” value [1, 3] was 0 count (percentage). For the same molecule, the “TRAE, ≥ Grade 3: Diarrhea” value [1, 3] was 4 (9.3) count (percentage), the “TRAE, ≥ Grade 3: Fatigue” value [1, 3] was 0 count (percentage) and the “TRAE, ≥ Grade 3: Hypertension” value [1, 3] was 0 count (percentage). The “TRAE, ≥ Grade 3: Hypoalbuminemia” value [1, 3] was 0 count (percentage), the “TRAE, ≥ Grade 3: Hypokalemia” value [1, 3] was 3 (7.0) count (percentage) and the “TRAE, ≥ Grade 3: Nausea” value [1, 3] was 0 count (percentage). For the same molecule, the “TRAE, ≥ Grade 3: Neutrophil counts decreased” value [1, 3] was 3 (7.0) count (percentage), the “TRAE, ≥ Grade 3: Platelet counts decreased” value [1, 3] was 0 count (percentage) and the “TRAE, ≥ Grade 3: Prolonged QT interval” value [1, 3] was 12 (27.9) count (percentage). For the same molecule, the “TRAE, ≥ Grade 3: Proteinuria” value [1, 3] was 0 count (percentage), the “TRAE, ≥ Grade 3: Rash” value [1, 3] was 3 (7.0) count (percentage) and the “TRAE, ≥ Grade 3: Vomiting” value [1, 3] was 0 count (percentage). The “TRAE, ≥ Grade 3: Weight loss” value [1, 3] was 0 count (percentage), the “TRAE, ≥ Grade 3: White blood cell counts decreased” value [1, 3] was 1 (2.3) count (percentage) and the “TRAE, All: ALT increased” value [1, 4] was 52 (31.5) count (percentage). The “TRAE, All: AST increased” value [1, 4] was 52 (31.5) count (percentage), the “TRAE, All: Anemia” value [1, 4] was 14 (8.5) count (percentage) and the “TRAE, All: Any” value [1, 4] was 161 (97.6) count (percentage). The “TRAE, All: Blood creatinine increased” value [1, 4] was 33 (20.0) count (percentage), the “TRAE, All: Decreased appetite” value [1, 4] was 25 (15.2) count (percentage) and the “TRAE, All: Decreased lymphocyte counts” value [1, 4] was 5 (3.0) count (percentage). For the same molecule, the “TRAE, All: Diarrhea” value [1, 4] was 125 (75.8) count (percentage), the “TRAE, All: Fatigue” value [1, 4] was 22 (13.3) count (percentage) and the “TRAE, All: Hypertension” value [1, 4] was 22 (13.3) count (percentage). For the same molecule, the “TRAE, All: Hypoalbuminemia” value [1, 4] was 20 (12.1) count (percentage), the “TRAE, All: Hypokalemia” value [1, 4] was 26 (15.8) count (percentage) and the “TRAE, All: Nausea” value [1, 4] was 37 (22.4) count (percentage). For the same molecule, the “TRAE, All: Neutrophil counts decreased” value [1, 4] was 13 (7.9) count (percentage), the “TRAE, All: Platelet counts decreased” value [1, 4] was 12 (7.3) count (percentage) and the “TRAE, All: Prolonged QT interval” value [1, 4] was 76 (46.1) count (percentage). For the same molecule, the “TRAE, All: Proteinuria” value [1, 4] was 48 (29.1) count (percentage), the “TRAE, All: Rash” value [1, 4] was 88 (53.3) count (percentage) and the “TRAE, All: Vomiting” value [1, 4] was 30 (18.2) count (percentage). The “TRAE, All: Weight loss” value [1, 4] was 6 (3.6) count (percentage), the “TRAE, All: White blood cell counts decreased” value [1, 4] was 14 (8.5) count (percentage) and the “TRAE, ≥ Grade 3: ALT increased” value [1, 4] was 3 (1.8) count (percentage). For the same molecule, the “TRAE, ≥ Grade 3: AST increased” value [1, 4] was 3 (1.8) count (percentage), the “TRAE, ≥ Grade 3: Anemia” value [1, 4] was 1 (0.6) count (percentage) and the “TRAE, ≥ Grade 3: Any” value [1, 4] was 68 (41.2) count (percentage). For the same molecule, the “TRAE, ≥ Grade 3: Blood creatinine increased” value [1, 4] was 2 (1.2) count (percentage), the “TRAE, ≥ Grade 3: Decreased appetite” value [1, 4] was 4 (2.4) count (percentage) and the “TRAE, ≥ Grade 3: Decreased lymphocyte counts” value [1, 4] was 0 count (percentage). For the same molecule, the “TRAE, ≥ Grade 3: Diarrhea” value [1, 4] was 12 (7.3) count (percentage), the “TRAE, ≥ Grade 3: Fatigue” value [1, 4] was 0 count (percentage) and the “TRAE, ≥ Grade 3: Hypertension” value [1, 4] was 14 (8.5) count (percentage). The “TRAE, ≥ Grade 3: Hypoalbuminemia” value [1, 4] was 1 (0.6) count (percentage), the “TRAE, ≥ Grade 3: Hypokalemia” value [1, 4] was 4 (2.4) count (percentage) and the “TRAE, ≥ Grade 3: Nausea” value [1, 4] was 2 (1.2) count (percentage). For the same molecule, the “TRAE, ≥ Grade 3: Neutrophil counts decreased” value [1, 4] was 1 (0.6) count (percentage), the “TRAE, ≥ Grade 3: Platelet counts decreased” value [1, 4] was 1 (0.6) count (percentage) and the “TRAE, ≥ Grade 3: Prolonged QT interval” value [1, 4] was 26 (15.8) count (percentage). The “TRAE, ≥ Grade 3: Proteinuria” value [1, 4] was 0 count (percentage), the “TRAE, ≥ Grade 3: Rash” value [1, 4] was 7 (4.2) count (percentage) and the “TRAE, ≥ Grade 3: Vomiting” value [1, 4] was 2 (1.2) count (percentage). For the same molecule, the “TRAE, ≥ Grade 3: Weight loss” value [1, 4] was 0 count (percentage), the “TRAE, ≥ Grade 3: White blood cell counts decreased” value [1, 4] was 2 (1.2) count (percentage) and the “≥ grade-3 TRAE decreased neutrophil counts” value ([1]; with previous immunotherapy) was 7.0%. For the same molecule, the “≥ grade-3 TRAE hypertension” value ([1]; with previous immunotherapy) was 0%, the “≥ grade-3 TRAE prolonged QT interval” value ([1]; with previous immunotherapy) was 27.9% and the “≥ grade-3 TRAE decreased neutrophil counts” value ([1]; without previous immunotherapy) was 0.6%. The “≥ grade-3 TRAE hypertension” value ([1]; without previous immunotherapy) was 8.5%, the “≥ grade-3 TRAE prolonged QT interval” value ([1]; without previous immunotherapy) was 15.8% and the IC50 (FMS) was 2910 nM. For the same molecule, the IC50 (HER-2) was 42 nM, the mouse matrigel angiogenesis (matrigel angiogenesis) was “able to inhibit” and the “onset of inhibition of EGFR signaling pathway” value [2] was 2 h. For the same molecule, the “number of metabolites found in plasma” value (Metabolites in plasma) was 7 and the genetic toxicity (Ames test) was “negative”.
